Measured values from ChEMBL document CHEMBL1135590, “Design of substrate-based inhibitors of human beta-secretase” (J Med Chem, 2002).
Starred links: 1 amine or outer side, 2 acyl side, 3 side chain; linkers in the order of their positions; H or OH if unused. Non-standard residues stand in square brackets, D forms with d. Residues, ends and D or L forms follow the SMILES beside them. ξ: configuration not given here. LeuΨ(ξCHOHCH2)Val = CC(C)C[C@H](N[*:1])C(O)C[C@H](C(=O)[*:2])C(C)C; X2 = CC(=O)O[C@@H](CC(=O)[*:2])[C@H](CC(C)C)N[*:1]; Sta(3ξ) = CC(C)C[C@H](N[*:1])C(O)CC(=O)[*:2]; X3 = CC(C)C[C@H](N[*:1])[C@H](O)CC(=O)[*:2]; X4 = O=C(CC(O)[C@H](Cc1ccccc1)N[*:1])[*:2]; X5 = O=C(CC(O)[C@H](CC1CCCCC1)N[*:1])[*:2]; Sta = CC(C)C[C@H](N)[C@@H](O)CC(=O)O; X1 = CC(C)CC(N[*:1])C(O)CC(=O)[*:2]; Tle = CC(C)(C)[C@H](N)C(=O)O

molecular target: Beta-secretase 1 (Homo sapiens, UniProt P56817); assay: Inhibition of human brain beta-secretase, using MBPC125Swe (maltose-binding-protein C-125 Swedish) assay; assay type: biochemical
Sequence (P56817 whole entry): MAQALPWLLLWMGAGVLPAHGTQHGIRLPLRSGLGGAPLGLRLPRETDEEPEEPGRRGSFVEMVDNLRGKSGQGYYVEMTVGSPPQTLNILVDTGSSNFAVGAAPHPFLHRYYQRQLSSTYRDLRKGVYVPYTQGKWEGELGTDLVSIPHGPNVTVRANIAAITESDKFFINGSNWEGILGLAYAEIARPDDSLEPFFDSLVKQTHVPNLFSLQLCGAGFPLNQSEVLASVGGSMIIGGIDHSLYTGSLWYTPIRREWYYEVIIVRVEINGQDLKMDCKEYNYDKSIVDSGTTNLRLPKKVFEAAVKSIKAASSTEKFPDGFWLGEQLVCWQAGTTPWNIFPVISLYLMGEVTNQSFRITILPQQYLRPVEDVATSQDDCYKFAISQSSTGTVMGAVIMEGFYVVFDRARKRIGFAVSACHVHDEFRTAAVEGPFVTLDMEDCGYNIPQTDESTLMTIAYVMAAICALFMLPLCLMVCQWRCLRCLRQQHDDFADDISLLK

IC50	Molecule
> 200 µM	H-TNIKTEEISEVNTDAEFR-OH
5 µM	CSCC[C@H](NC(=O)[C@@H](NC(C)=O)C(C)C)C(=O)N[C@@H](CC1CCCCC1)C(O)CC(=O)N[C@H](C(=O)N[C@@H](C)C(=O)N[C@@H](CCC(=O)O)C(=O)N[C@@H](Cc1ccccc1)C(=O)O)C(C)C (some centres not stated) (Ac-VM[X5]VAEF-OH)
> 100 µM	CSCC[C@H](NC(=O)[C@@H](NC(C)=O)C(C)C)C(=O)NC(CC(C)C)C(O)CC(=O)N[C@H](C(=O)N[C@@H](C)C(=O)O)C(C)C (some centres not stated) (Ac-VM[X1]VA-OH)
> 100 µM	CSCC[C@H](NC(=O)[C@@H](NC(C)=O)C(C)C)C(=O)N[C@@H](CC(C)C)C(O)CC(=O)N[C@@H](CC(=O)O)C(=O)N[C@@H](C)C(=O)N[C@@H](CCC(=O)O)C(=O)N[C@@H](C)C(=O)O (some centres not stated) (Ac-VM[Sta(3ξ)]DAEA-OH)
> 200 µM	CSCC[C@H](NC(=O)[C@@H](NC(C)=O)C(C)C)C(=O)NC(CC(C)C)C(O)CC(=O)N1CCC[C@@H]1C(=O)N[C@@H](C)C(=O)N[C@@H](CCC(=O)O)C(=O)N[C@@H](Cc1ccccc1)C(=O)O (some centres not stated)
1.2 µM	CSCC[C@H](NC(=O)[C@@H](NC(C)=O)C(C)C)C(=O)N[C@@H](CC(C)C)C(O)CC(=O)N[C@H](C(=O)N[C@@H](C)C(=O)N[C@@H](CCC(=O)O)C(=O)N[C@@H](C)C(=O)O)C(C)C (some centres not stated) (Ac-VM[Sta(3ξ)]VAEA-OH)
15 µM	CSCC[C@H](NC(=O)[C@@H](NC(C)=O)C(C)C)C(=O)NC(CC(C)C)C(O)CC(=O)N[C@@H](Cc1ccccc1)C(=O)N[C@@H](C)C(=O)N[C@@H](CCC(=O)O)C(=O)N[C@@H](Cc1ccccc1)C(=O)O (some centres not stated) (Ac-VM[X1]FAEF-OH)
40 µM	CC[C@H](C)[C@H](NC(=O)[C@H](CCC(=O)O)NC(=O)[C@H](CCC(=O)O)NC(=O)[C@@H](NC(=O)[C@@H](N)CCCCN)[C@@H](C)O)C(=O)N[C@@H](CO)C(=O)N[C@@H](CCC(=O)O)C(=O)N[C@H](C(=O)N[C@@H](CC(N)=O)C(=O)N[C@@H](CC(C)C)[C@@H](O)CC(=O)N[C@@H](CC(=O)O)C(=O)N[C@@H](C)C(=O)N[C@@H](CCC(=O)O)C(=O)N[C@@H](Cc1ccccc1)C(=O)O)C(C)C (H-KTEEISEVN[Sta]DAEF-OH)
5 µM	CSCC[C@H](NC(=O)[C@@H](NC(C)=O)C(C)C)C(=O)NC(CC(C)C)C(O)CC(=O)N[C@@H](C)C(=O)N[C@@H](C)C(=O)N[C@@H](CCC(=O)O)C(=O)N[C@@H](Cc1ccccc1)C(=O)O (some centres not stated) (Ac-VM[X1]AAEF-OH)
> 200 µM	H-TNIKTEEISEVNMDAEFR-OH
> 200 µM	H-TNIKTEEISEVNRDAEFR-OH
> 150 µM	CC(C)CC(NC(=O)[C@@H](N)CC(N)=O)C(O)CC(=O)N[C@H](C(=O)N[C@@H](C)C(=O)N[C@@H](CCC(=O)O)C(=O)N[C@@H](Cc1ccccc1)C(=O)O)C(C)C (some centres not stated) (H-N[X1]VAEF-OH)
0.5 µM	CC(=O)N[C@H](C(=O)N[C@@H](CC(N)=O)C(=O)NC(CC(C)C)C(O)CC(=O)N[C@H](C(=O)N[C@@H](C)C(=O)N[C@@H](CCC(=O)O)C(=O)N[C@@H](Cc1ccccc1)C(=O)O)C(C)C)C(C)C (some centres not stated) (Ac-VN[X1]VAEF-OH)
> 200 µM	H-TNIKTEEISEVNEDAEFR-OH
0.3 µM	CSCC[C@H](NC(=O)[C@@H](NC(C)=O)C(C)C)C(=O)NC(CC(C)C)C(O)CC(=O)N[C@H](C(=O)N[C@@H](C)C(=O)N[C@@H](CCC(=O)O)C(=O)N[C@@H](Cc1ccccc1)C(=O)O)C(C)C (some centres not stated) (Ac-VM[X1]VAEF-OH)
> 200 µM	CC[C@H](C)[C@H](NC(=O)[C@H](CCC(=O)O)NC(=O)[C@H](CCC(=O)O)NC(=O)[C@@H](NC(=O)[C@@H](N)CCCCN)[C@@H](C)O)C(=O)N[C@@H](CO)C(=O)N[C@@H](CCC(=O)O)C(=O)N[C@H](C(=O)N[C@@H](CC(N)=O)C(=O)N[C@@H](CC(C)C)[C@H](O)CC(=O)N[C@@H](CC(=O)O)C(=O)N[C@@H](C)C(=O)N[C@@H](CCC(=O)O)C(=O)N[C@@H](Cc1ccccc1)C(=O)O)C(C)C (H-KTEEISEVN[X3]DAEF-OH)
> 200 µM	H-TNIKTEEISEVNFDAEFR-OH
45 µM	H-TNIKTEEISEVNLLAEFR-OH
> 200 µM	H-TNIKTEEISEVNVDAEFR-OH
> 200 µM	H-TNIKTEEISEVNLDAEFR-OH
0.5 µM	CSCC[C@H](NC(=O)[C@@H](NC(C)=O)C(C)C)C(=O)N[C@@H](Cc1ccccc1)C(O)CC(=O)N[C@H](C(=O)N[C@@H](C)C(=O)N[C@@H](CCC(=O)O)C(=O)N[C@@H](Cc1ccccc1)C(=O)O)C(C)C (some centres not stated) (Ac-VM[X4]VAEF-OH)
119 µM	H-TNIKTEEISEVNLGAEFR-OH
9 µM	CC(C)C[C@H](NC(=O)[C@H](CC(N)=O)NC(=O)[C@@H](N)C(C)C)C(O)CC(=O)N[C@H](C(=O)N[C@@H](C)C(=O)N[C@@H](CCC(=O)O)C(=O)N[C@@H](Cc1ccccc1)C(=O)O)C(C)C (some centres not stated) (H-VN[Sta(3ξ)]VAEF-OH)
1 µM	CSCC[C@H](NC(=O)[C@@H](NC(C)=O)C(C)C)C(=O)NC(CC(C)C)C(O)CC(=O)N[C@H](C(=O)N[C@@H](C)C(=O)N[C@@H](CCC(=O)O)C(=O)O)C(C)C (some centres not stated) (Ac-VM[X1]VAE-OH)

More lines, now with the values behind:

Molecule	IC50
CC[C@H](C)[C@H](NC(=O)[C@H](CCC(=O)O)NC(=O)[C@H](CCC(=O)O)NC(=O)[C@@H](NC(=O)[C@@H](N)CCCCN)[C@@H](C)O)C(=O)N[C@@H](CO)C(=O)N[C@@H](CCC(=O)O)C(=O)N[C@H](C(=O)N[C@@H](CC(N)=O)C(=O)N[C@@H](CC(C)C)[C@@H](O)CC(=O)N[C@H](C(=O)N[C@@H](C)C(=O)N[C@@H](CCC(=O)O)C(=O)N[C@@H](Cc1ccccc1)C(=O)O)C(C)C)C(C)C (H-KTEEISEVN[Sta]VAEF-OH)	0.03 µM
CC[C@H](C)[C@H](NC(=O)[C@H](CCC(=O)O)NC(=O)[C@H](CCC(=O)O)NC(=O)[C@@H](NC(=O)[C@@H](N)CCCCN)[C@@H](C)O)C(=O)N[C@@H](CO)C(=O)N[C@@H](CCC(=O)O)C(=O)N[C@H](C(=O)N[C@@H](CC(N)=O)C(=O)N[C@@H](CC(C)C)[C@@H](O)CC(=O)N[C@@H](CC(=O)O)C(=O)N[C@@H](C)C(=O)N[C@@H](CCC(=O)O)C(=O)N[C@@H](Cc1ccccc1)C(=O)N[C@@H](CCCN=C(N)N)C(=O)O)C(C)C (H-KTEEISEVN[Sta]DAEFR-OH)	60 µM
H-TNIKTEEISEVNHDAEFR-OH	> 200 µM
H-TNIKTEEISEVNLVAEFR-OH	3 µM
CSCC[C@H](NC(=O)[C@@H](NC(C)=O)C(C)C)C(=O)NC(CC(C)C)C(O)CC(=O)N[C@H](C(=O)N[C@@H](C)C(=O)N[C@@H](CCC(=O)O)C(=O)N[C@@H](Cc1ccccc1)C(=O)O)[C@H](C)O (some centres not stated)	100 µM
CSCC[C@H](NC(=O)[C@@H](NC(C)=O)C(C)C)C(=O)N[C@@H](CC(C)C)C(O)CC(=O)N[C@H](C(=O)N[C@@H](C)C(=O)N[C@@H](CCC(=O)O)C(=O)N[C@@H](C)C(=O)O)C(C)(C)C (some centres not stated) (Ac-VM[Sta(3ξ)][Tle]AEA-OH)	20 µM
CC[C@H](C)[C@H](NC(=O)[C@H](CCC(=O)O)NC(=O)[C@H](CCC(=O)O)NC(=O)[C@@H](NC(=O)[C@@H](N)CCCCN)[C@@H](C)O)C(=O)N[C@@H](CO)C(=O)N[C@@H](CCC(=O)O)C(=O)N[C@H](C(=O)N[C@@H](CC(N)=O)C(=O)N[C@@H](CC(C)C)[C@@H](O)CC(=O)N[C@@H](C)C(=O)N[C@@H](C)C(=O)N[C@@H](CCC(=O)O)C(=O)N[C@@H](Cc1ccccc1)C(=O)O)C(C)C (H-KTEEISEVN[Sta]AAEF-OH)	0.5 µM
CSCC[C@H](NC(=O)[C@@H](NC(C)=O)C(C)C)C(=O)N[C@@H](CC(C)C)C(O)C[C@H](C(=O)N[C@@H](C)C(=O)N[C@@H](CCC(=O)O)C(=O)N[C@@H](Cc1ccccc1)C(=O)O)C(C)C (some centres not stated) (Ac-VM[LeuΨ(ξCHOHCH2)Val]AEF-OH)	0.02 µM
H-TNIKTEEISEVNLAAEFR-OH	> 200 µM
CC(C)C[C@H](NC(=O)[C@H](CC(N)=O)NC(=O)[C@@H](NC(=O)[C@@H](N)CCC(=O)O)C(C)C)C(O)CC(=O)N[C@H](C(=O)N[C@@H](C)C(=O)N[C@@H](CCC(=O)O)C(=O)N[C@@H](Cc1ccccc1)C(=O)O)C(C)C (some centres not stated) (H-EVN[Sta(3ξ)]VAEF-OH)	0.04 µM
CC[C@H](C)[C@H](NC(=O)[C@H](CCC(=O)O)NC(=O)[C@H](CCC(=O)O)NC(=O)[C@@H](NC(=O)[C@@H](N)CCCCN)[C@@H](C)O)C(=O)N[C@@H](CO)C(=O)N[C@@H](CCC(=O)O)C(=O)N[C@H](C(=O)N[C@@H](CC(N)=O)C(=O)N[C@@H](CC(C)C)[C@H](CC(=O)N[C@@H](CC(=O)O)C(=O)N[C@@H](C)C(=O)N[C@@H](CCC(=O)O)C(=O)N[C@@H](Cc1ccccc1)C(=O)O)OC(C)=O)C(C)C (H-KTEEISEVN[X2]DAEF-OH)	> 200 µM
H-TNIKTEEISEVNGDAEFR-OH	> 200 µM
H-TNIKTEEISEVNADAEFR-OH	> 200 µM
CC(C)C[C@H](NC(=O)[C@H](CC(N)=O)NC(=O)[C@H](C)NC(=O)[C@@H](N)CCC(=O)O)C(O)CC(=O)N[C@H](C(=O)N[C@@H](C)C(=O)N[C@@H](CCC(=O)O)C(=O)N[C@@H](Cc1ccccc1)C(=O)O)C(C)C (some centres not stated) (H-EAN[Sta(3ξ)]VAEF-OH)	2.5 µM
CSCC[C@H](NC(=O)[C@@H](NC(C)=O)C(C)C)C(=O)NC(CC(C)C)C(O)CC(=O)N[C@H](C(=O)O)C(C)C (some centres not stated)	> 100 µM
H-TNIKTEEISEVNLFAEFR-OH	40 µM
CSCC[C@H](NC(=O)[C@@H](NC(C)=O)C(C)C)C(=O)N[C@@H](CC(C)C)C(O)CC(=O)N[C@H](C(=O)N[C@@H](C)C(=O)N[C@@H](C)C(=O)N[C@@H](Cc1ccccc1)C(=O)O)C(C)C (some centres not stated) (Ac-VM[Sta(3ξ)]VAAF-OH)	2 µM
H-TNIKTEEISEVNLKAEFR-OH	40 µM
